# Measured values published in the METLIN SMRT retention time set (Domingo-Almenara et al. 2019).
# Experiment: gradient 5% acetonitrile 3 min, to 50% in 2 min, to 85% in 15 min, held 3 min, 100 µL/min
# Conditions: column: Zorbax Extend-C18 2.1 x 50 mm; eluents: water / acetonitrile, 0.1% formic acid
# In short: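 Standards, all pure, were combined into mixtures of ~100 molecules and run at 100 μL/min on a Zorbax Extend-C18 column (2.1 × 50 mm, 1.8 μm) with water and acetonitrile, each containing 0.1% formic acid. A coupled quadrupole time-of-flight mass spectrometer operated in positive and negative ionization mode. Retention time values come from computationally picked adduct peaks, each inspected manually.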
row,Compound,RP-LC retention time [s]
1,Cc1ccc(Nc2c(-c3nc(C)no3)cnc3nc(C)ccc23)cc1,750
2,COc1ccc(-c2nc(-c3ccc4nnn(C(C)C)c4c3)no2)cc1OC,1020
3,Cc1cc(C)nc(N2CCN(c3cc(C)nc4c(C)c(-c5ccc(Cl)cc5)nn34)CC2)n1,1020
4,N#Cc1cccc(-c2cn3c(n2)N(C(=O)c2ccoc2)CCC3)c1,644
5,Clc1ccccc1-c1ccnc2nc(-c3ccccc3)nn12,928
6,COC1CCC12CCN(C(=O)CC1CCN(C(C)=O)CC1)CC2 (configuration not stated),658
7,CSc1cccc(NC(=O)C2CCN(S(=O)(=O)c3ccc(-c4noc(C5CC5)n4)cc3)CC2)c1,1100
8,CCc1nc(-c2csc(S(=O)(=O)N3CCCC(C(=O)NC4CCC(C)CC4)C3)c2)no1 (configuration not stated),1100
9,COc1cc2c(cc1OC)C(COc1cccc(C(F)(F)F)c1)NCC2 (configuration not stated),586
10,Cc1ccn2c(NC(=O)c3ccco3)c(-c3ccccc3)nc2c1,622
11,COc1ccc(NC(=O)NC2CCN(c3ccc(C)cc3)C2=O)cc1OC (configuration not stated),720
12,CCCn1cc(CCNC(=O)Nc2ccc(Cl)cc2)c2cccnc21,812
13,COC(=O)c1cc(OCC(=O)Nc2ccc(F)cc2F)c2cc(OC)ccc2n1,822
14,CCCn1cc(C(=O)NC2CCCC2)c2cccnc21,794
15,Cc1cc(C)c2c(N3CCCC3)nc(C(=O)N3CCN(c4ccccn4)CC3)nc2n1,1080
16,O=C(Cn1nc2c(SCc3ccc(Cl)cc3)nccn2c1=O)N1CCN(c2ccccc2)CC1,1040
17,O=C(NCCc1ccc(N2CCCC2)cc1)c1ccccc1,704
18,CC(C)n1nnc2ccc(-c3noc(-c4ccccc4)n3)cc21,1130
19,COc1ccc(C(=O)N2CCC3(C2)C(=O)Nc2ccc(OC)cc23)cc1 (configuration not stated),683
20,Cc1ccsc1C(=O)N1CCN(C(=O)c2cc(-c3ccccn3)n[nH]2)CC1,631
21,CCOc1ccc2nc(NC(=O)Cn3nc(C(=O)N4CCCCC4)c4ccccc43)sc2c1,944
22,CCSc1ccccc1C(=O)Nc1nnc(Cc2cccs2)o1,764

row,Compound,RP-LC retention time [s]
1,O=C(Cn1nc2c(N3CCN(c4ccccc4)CC3)nccn2c1=O)Nc1cccc(Cl)c1,964
2,CCn1c(CN2CCN(S(C)(=O)=O)CC2)nc2cc(NC(=O)C(C)C)ccc21,612
3,Cc1sc2nc(SCC(=O)Nc3sc4c(c3C#N)CCCC4)n(C)c(=O)c2c1C,1080
4,O=C(NCc1cccs1)c1c(O)c2cccnc2n(Cc2ccccc2)c1=O,1310
5,COC(=O)C1=C(C)N(C(C)C)C(=O)C1(NC(=O)c1cccc(OC)c1)C(F)(F)F (configuration not stated),917
6,CCOc1ccc(CC(=O)N2C[C@@H]3C[C@H]2C[C@@H]3NC(=O)c2cccs2)cc1,782
7,CC(C)(C)c1cccc(NC(=O)C2CCc3nc(N4CCOCC4)ncc3C2)c1 (configuration not stated),945
8,CC1CN(c2nc(-c3ccc([N+](=O)[O-])cc3)nc3ccccc23)CC(C)O1 (configuration not stated),1030
9,CCOc1cc(=O)n2c(c1C(=O)OCc1ccc(C)cc1)CCCCC2,1010
10,CCN(CC)S(=O)(=O)N1CCC(C(=O)NCCc2ccc(OC)c(OC)c2)CC1,751
11,Cc1cc(S(=O)(=O)NCC2CCN(C(=O)NC(C)(C)C)CC2)c(Cl)cc1Cl,927
12,Cc1ccc(NC(=O)C2CCN(S(=O)(=O)c3cc(C(=O)N(C)C)cs3)CC2)cc1Cl,912
13,O=C(Cn1ccc2c(SCc3ccccc3)nccc21)N1CCN(c2ccccc2)CC1,768
14,CCn1cc(C)c(C(=O)O)c1CC(=O)Nc1cc(F)ccc1F,859
15,COc1cccc(CNC(=O)C2CCN(c3ccc(SCc4ccccc4)nn3)CC2)c1,758
16,CCn1c(=O)c(N2CCN(C(=O)Nc3ccc(Br)cc3)CC2)nc2cccnc21,1030
17,O=C(Nc1cc(-c2ccccn2)no1)c1ccc(Br)cc1,868
18,CCn1cc(-c2ccc(C)cc2)cc1C(=O)NCC1CCCO1 (configuration not stated),614
19,CCn1ccc2sc(C)c(C(=O)NCc3cc(OC)ccc3OC)c2c1=O,716
20,CCOC(=O)c1c(S(=O)(=O)N2CCC(C(=O)NCc3ccccc3Cl)CC2)c(C)n(C)c1C,862
21,COc1cccc(NC(=O)Cn2c(=O)c3cc(-c4ccco4)nn3c3ncccc32)c1,807
22,O=C(CN1C(=O)COc2ccc(C(=O)N3CCN(c4ccc(F)cc4)CC3)cc21)N1CCCC1,736

row,Compound,RP-LC retention time [s]
1,O=C(Cn1cccc1-c1nnc(-c2ccccc2)o1)N1CCC2(CC1)OCCO2,834
2,CCc1nnc(C2CN(C)CC23CCN(S(=O)(=O)c2ccc(C)c(Cl)c2)CC3)o1 (configuration not stated),675
3,COC(=O)c1sccc1NC(=O)Cn1c(C)cc(C)c(-c2nc(-c3ccc(C)cc3)no2)c1=O,1110
4,CCc1nc2onc(C)c2c(=O)n1CC(=O)NCCCc1ccccc1,844
5,CC(=O)c1ccc(NC(=O)N2C[C@@H]3C[C@H](NC(=O)c4cccnc4)[C@H]2C3)cc1,627
6,CCN1CCCC1CNC(=O)c1nnc(-c2ccc(S(=O)(=O)N3CCC(C)CC3)cc2)o1 (configuration not stated),703
7,Cc1ccccc1-c1csc2c(=O)n(Cc3ccc(N4CCCC4=O)cc3)cnc12,889
8,O=C(O)CCc1conc1-c1ccc(F)cc1,708
9,Cc1ccc(N2C=C(C(=O)N3CCOCC3)S(=O)(=O)c3ccc(F)cc32)cc1,814
10,Cc1noc(Cn2cnc3c4ccccc4n(CC(=O)NC4CCCC4)c3c2=O)n1,744
11,CCOc1cc(C(=O)NC(C)C(=O)Nc2nc3ccccc3[nH]2)cc(OCC)c1OCC (configuration not stated),745
12,CS(=O)(=O)NC1(CC2CC2)CCN(Cc2cn[nH]c2-c2ccc(F)cc2)CC1,623
13,Cc1ccc(CNC(=O)C2CCCN(S(=O)(=O)c3c[nH]c(C(=O)N4CCCC4)c3)C2)cc1 (configuration not stated),762
14,O=C(CC1CCCCC1)Nc1ccc(-c2cn3cccnc3n2)cc1,688
15,O=S(=O)(c1cccs1)N1CCN(c2nc3c(F)cc(F)cc3s2)CC1,997
16,COc1ccccc1NC(=O)Cc1csc2nc(-c3ccccc3)cn12,786
17,CCCCOc1ccc(CNC(=O)CCc2ccc3nc(CC)[nH]c3c2)cc1,683
18,Cc1noc(-c2cc(=O)n(CC(=O)NCc3ccccc3Cl)c3ccccc23)n1,866
19,Cn1c(=O)sc2cc(S(=O)(=O)N3CCC(C(=O)NC4CC4)CC3)ccc21,670
20,Cc1ccc(NC(=O)Cn2nc(N3CCCCCC3)c3ccccc3c2=O)c(C)c1,1100
21,COc1ccccc1OC(C)C(=O)N1CCN(c2cc(C)n3cnnc3n2)CC1 (configuration not stated),599
22,CCOC(=O)c1sc(NC(=O)c2ccccc2F)nc1-c1ccccc1,1100

row,Compound,RP-LC retention time [s]
1,COc1cccc(-c2csc(CN3CCNCC3)n2)c1,566
2,COc1cc(NC(=O)CN2C(=O)CCc3cc(Br)ccc32)cc(OC)c1,898
3,COc1cc2c(cc1OC)C(C(=O)NCCN1CCOCC1)C1c3ccccc3CCN1C2=O (configuration not stated),595
4,O=C(NCCn1c(=O)n(Cc2ccccc2)c2cccnc21)c1ccoc1,725
5,COC(=O)N1CCc2ccccc2C1C(=O)NCCCn1ccnc1 (configuration not stated),556
6,CCCS(=O)(=O)N1CCC(N2C[C@H](OC)[C@@H]2c2cccnc2)CC1,561
7,Cc1ccc(NC(=O)CN2CCc3c(c(=O)c4cc(C)ccc4n3C)C2)cc1,649
8,Cc1cc(C)cc(S(=O)(=O)Nc2ccc3nc(N4CCN(CCC#N)CC4)cc(C(=O)O)c3c2)c1,658
9,O=C(c1ccc2c(c1)OCO2)N1CCN(c2ncnc3c2CCC3)CC1,588
10,COc1cc(NC(=O)Cc2csc3nc(-c4ccccc4)cn23)cc(OC)c1OC,749
11,O=C(Nc1ccccc1Cl)N1CCc2nc[nH]c2C1,570
12,CCOC(=O)c1cccc(Nc2c(-c3ccc(Cl)cc3)nc3cnccn23)c1,992
13,CCCc1ccc(S(=O)(=O)N2CCCC2c2nc(-c3cccc(C)c3)no2)cc1 (configuration not stated),1330
14,Cc1c(Cl)cccc1NC(=O)CSc1nnc2c3cc(-c4ccc(F)cc4)nn3ccn12,936
15,O=C(c1cn(-c2cc(N3CCSCC3)ncn2)cn1)N1CCCc2ccccc21,780
16,COc1cccc(NC(=O)Cn2nc3c(Oc4cccc(F)c4)nccn3c2=O)c1,839
17,CCCNC(=O)C1CCCN(c2nc3ncn(CC(=O)Nc4ccc(OCC)cc4)c(=O)c3s2)C1 (configuration not stated),720
18,O=C(Cn1ncc2c(N3CCN(c4ccccn4)CC3)ncnc21)Nc1ccccc1C(F)(F)F,610
19,Cc1cc(-c2c(C)sc(C)c2S(=O)(=O)NC2CCCCCC2)n[nH]1,1140
20,NC(N)=NCCC[C@H](NC(=O)c1sccc1NS(=O)(=O)c1cccc2nsnc12)C(=O)O,685
21,CCOC(=O)CCNC(=O)N1[C@H]2CC[C@@H]1c1cnc(-c3ccccc3)nc1C2,794
